# Like-named read-outs stand apart in the source and are kept apart here.
# Assays:
# [1] = system: HT-29 cells; assay: growth inhibition of HT-29 cells, 6 days, sulforhodamine B staining; assay type: cell-based, human; details: for IC50: HT-29, 6 days, sulforhodamine B
# Experimental: The growth inhibitory effect of 5-ethoxy-2'-deoxyuridine was compared with other analogous 5-substituted-2'-deoxyuridine compounds by determining the IC50 of each compound in an assay which measured the growth inhibition of HT-29 cells. The HT-29 cells were placed in 96 well plates (2×10^4 cells per well) in RPMI 1640 with 10% added fetal bovine serum. After allowing the cells to attach overnight, several concentrations of the test compounds were added. After 6 days, cell numbers were quantitated by staining with sulforhodamine B (Skehan et al., J. Natl. Canc. Inst, 82, 1107-1112, 1990).
# [2] = system: HT-29 human carcinoma cells; assay: in vitro clonogenic assay (cloning efficiency) with HT-29 cells, 72 h drug exposure; assay type: cell-based; details: for IC50: read-out: IC50 for 5-fluorouracil (50% reduction of cloning efficiency)
# Experimental: For assessment of the antitumor activity of 5-ethoxy-2'-deoxyuridine, an in vitro clonogenic assay was used. The assay was based on a modification of procedures first described by Puck and Marcus (Proc. Natl. Acad. Sci. (USA) 41:432-437, 1955). […] 3:225-231, 1991; A. F. Sobrero et al., J. Natl. Cancer Inst. 85:1937-1944, 1993).
# HT-29 human carcinoma cells (ATCC No. HTB-38) were maintained in RPMI 1640 with 10% v/v fetal bovine serum (GIBCO) in a humidified, 5% CO2 atmosphere at 37° C. Cells were plated in 24 well plates (150 cells per well) in RPMI 1640 medium with 10% v/v dialyzed fetal bovine serum. After allowing cell attachment to proceed overnight, combinations of interferon-α (500 units/ml; Roferon-A, Roche Labs.), 5-ethoxy-2'-deoxyuridine (150 μM), in the presence of increasing concentrations of 5-fluorouracil (as specified in the Table) were added. The various agents were diluted in phosphate-buffered saline, and control wells received vehicle alone. After 72 hours, drug containing medium was removed and replaced with RPMI 1640 with 10% v/v fetal bovine serum. Cell colonies were allowed to grow for an additional 7-10 days, at which point they were stained and counted. […] Data are means of at least 3 determinations. The IC50 values for 5-fluorouracil were calculated graphically by determining the concentration of 5-fluorouracil that reduced cloning efficiency by 50% from the cloning efficiency value measured in the absence of 5-fluorouracil.
compound,measurement,setting,value
5-propynyloxy-2'-deoxyuridine,IC50,[1],> 3000 µM
CCc1cn([C@H]2C[C@H](O)[C@@H](CO)O2)c(=O)[nH]c1=O [5-ethyl-2'-deoxyuridine],IC50,"[1]; Homo sapiens, 144 h",2.5 µM
CCOc1cn([C@H]2C[C@H](O)[C@@H](CO)O2)c(=O)[nH]c1=O [5-ethoxy-2'-deoxyuridine],activity at 150 µM,"[2]; Homo sapiens, HT-29, 72 h, 5-ETH 150 μM alone, no 5-FU (0), read-out: Cloning Efficiency (% of control)",89%
same,toxicity relative to the ethyl analog,"[1]; HT-29 cytotoxicity, fraction of the toxicity of the ethyl analog",about 1/300
same,toxicity relative to the methyloxy analog,"[1]; HT-29 cytotoxicity, fraction of the toxicity of the methyloxy analog",about 1/27
same,toxicity relative to the propyloxy analog,"[1]; HT-29 cytotoxicity, fraction of the toxicity of the propyloxy analog",about 1/2
same,IC50,"[1]; Homo sapiens, 144 h",750 µM
same,toxicity compared with many other prior art 5-substituted-2'-deoxyuridines that have been tested,[1]; statement in words,less toxic
"O=c1[nH]cc(F)c(=O)[nH]1 [5-FU, 5-fluorouracil]",Cloning Efficiency (% of control),"[2]; 5-FU 0.025 μM with 5-ETH 150 μM + IFN 500 u/ml, 4320 min",89 % of control
same,Cloning Efficiency (% of control),"[2]; 5-FU 0.05 μM with 5-ETH 150 μM + IFN 500 u/ml, 4320 min",81 % of control
same,Cloning Efficiency (% of control),"[2]; 5-FU 0.05 μM with 5-ETH 150 μM, 4320 min",81 % of control
same,Cloning Efficiency (% of control),"[2]; 5-FU 0.10 μM with 5-ETH 150 μM + IFN 500 u/ml, 4320 min",38 % of control
same,Cloning Efficiency (% of control),"[2]; 5-FU 0.10 μM with 5-ETH 150 μM, 4320 min",80 % of control
same,Cloning Efficiency (% of control),"[2]; 5-FU 0.15 μM with 5-ETH 150 μM + IFN 500 u/ml, 4320 min",9 % of control
same,Cloning Efficiency (% of control),"[2]; 5-FU 0.25 μM with 5-ETH 150 μM + IFN 500 u/ml, 4320 min",0 % of control
same,Cloning Efficiency (% of control),"[2]; 5-FU 0.25 μM with 5-ETH 150 μM, 4320 min",60 % of control
same,Cloning Efficiency (% of control),"[2]; 5-FU 0.25 μM with IFN 500 u/ml, 4320 min",97 % of control
same,Cloning Efficiency (% of control),"[2]; 5-FU 0.50 μM with 5-ETH 150 μM, 4320 min",38 % of control
same,Cloning Efficiency (% of control),"[2]; 5-FU 0.50 μM with IFN 500 u/ml, 4320 min",83 % of control
same,Cloning Efficiency (% of control),"[2]; 5-FU 1.0 μM with 5-ETH 150 μM, 4320 min",13 % of control
same,Cloning Efficiency (% of control),"[2]; 5-FU 1.0 μM with IFN 500 u/ml, 4320 min",56 % of control
same,Cloning Efficiency (% of control),"[2]; 5-FU 1.5 μM with 5-ETH 150 μM, 4320 min",4 % of control
same,Cloning Efficiency (% of control),"[2]; 5-FU 1.5 μM with IFN 500 u/ml, 4320 min",18 % of control
same,Cloning Efficiency (% of control),"[2]; 5-FU 2.0 μM with IFN 500 u/ml, 4320 min",8 % of control
same,Cloning Efficiency (% of control),[2]; 5-FU 3.0 μM with IFN 500 u/ml,1 % of control
same,IC50,"[2]; Homo sapiens, HT-29, 72 h, 5-FU alone (CONT, PBS)",2 µM
same,IC50,"[2]; Homo sapiens, HT-29, 72 h, 5-FU with 5-ETH 150 μM + IFN 500 u/ml",0.08 µM
same,IC50,"[2]; Homo sapiens, HT-29, 72 h, 5-FU with 5-ETH 150 μM",0.35 µM
same,IC50,"[2]; Homo sapiens, HT-29, 72 h, 5-FU with IFN 500 u/ml",1.1 µM
same,activity at 0.25 µM,"[2]; Homo sapiens, HT-29, 72 h, 5-FU 0.25 μM alone (CONT, PBS), read-out: Cloning Efficiency (% of control)",104%
same,activity at 0.5 µM,"[2]; Homo sapiens, HT-29, 72 h, 5-FU 0.50 μM alone (CONT, PBS), read-out: Cloning Efficiency (% of control)",93%
same,activity at 1 µM,"[2]; Homo sapiens, HT-29, 72 h, 5-FU 1.0 μM alone (CONT, PBS), read-out: Cloning Efficiency (% of control)",87%
same,activity at 1.5 µM,"[2]; Homo sapiens, HT-29, 72 h, 5-FU 1.5 μM alone (CONT, PBS), read-out: Cloning Efficiency (% of control)",60%
same,activity at 2 µM,"[2]; Homo sapiens, HT-29, 72 h, 5-FU 2.0 μM alone (CONT, PBS), read-out: Cloning Efficiency (% of control)",55%
same,activity at 3 µM,"[2]; Homo sapiens, HT-29, 72 h, 5-FU 3.0 μM alone (CONT, PBS), read-out: Cloning Efficiency (% of control)",27%
same,activity at 4 µM,"[2]; Homo sapiens, HT-29, 72 h, 5-FU 4.0 μM alone (CONT, PBS), read-out: Cloning Efficiency (% of control)",5%
CCCOc1cn([C@H]2C[C@H](O)[C@@H](CO)O2)c(=O)[nH]c1=O [5-propyloxy-2'-deoxyuridine],IC50,"[1]; Homo sapiens, 144 h",325 µM
COc1cn([C@H]2C[C@H](O)[C@@H](CO)O2)c(=O)[nH]c1=O [5-methoxy-21-deoxyuridine],IC50,"[1]; Homo sapiens, 144 h",28 µM

# Source: US5545629A, “5-ethoxy-2'-deoxyuridines” (Montefiore Medical Center, priority 1994, dated 1996)
